Results on 13 compounds are retold here after ChEMBL document CHEMBL1201862, “PubChem BioAssay data set” (2004).

Structures are written as SMILES. Active and inactive are the calls of the source. A value given as a limit tells only on which side of the number the result lay.

The target in assay [1] is Potassium voltage-gated channel subfamily KQT member 2 (Rattus norvegicus, UniProt O88943). As to the kind of experiment: KCNQ2 potassium channel inhibitors, dose response, cell-based, automated electrophysiology, set II, rat KCNQ2 (AID 588637). The assay is classed as functional.
Assay [2] has as its target T1, Mitochondrial peptide methionine sulfoxide reductase (Bos taurus, UniProt P54149). Description: Absorbance-based biochemical high throughput dose response assay for activators of Methionine sulfoxide reductase A (MsrA). The assay is classed as functional.
Assay [3] in a line: cytotoxicity toward NIH3T3 fibroblasts, dose response, counter-screen, cell-based, ATP luminescence, mouse fibroblasts (AID 2010).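 Further: cells exposed to compound for about 90 hours before reading.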 The assay is classed as functional.
The target of assay [4] is T2, Ubiquitin-conjugating enzyme E2 N (Homo sapiens, UniProt P61088).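 Further: Dose-response confirmation in a TR-FRET assay detecting UBC13-driven polyubiquitin chain formation, inhibition measured.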
T2 sequence (P61088 whole entry): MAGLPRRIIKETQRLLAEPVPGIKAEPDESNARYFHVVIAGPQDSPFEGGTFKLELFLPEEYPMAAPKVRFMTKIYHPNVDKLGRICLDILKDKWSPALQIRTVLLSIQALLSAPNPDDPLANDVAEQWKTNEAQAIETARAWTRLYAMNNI
The assay is classed as functional.

In a further assay the target is Melanocortin receptor 4 (Homo sapiens, UniProt P32245). The assay is classed as functional, cell-based.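 Further: Cell-based assay with luminescence read-out, confirmatory dose-response testing for agonist activity of biased ligands at MC4R; human U2OS cells with tagged receptor and beta-arrestin; potency of agonists that increase receptor coupling to beta-arrestin.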
Chain of Melanocortin receptor 4 (P32245 whole entry): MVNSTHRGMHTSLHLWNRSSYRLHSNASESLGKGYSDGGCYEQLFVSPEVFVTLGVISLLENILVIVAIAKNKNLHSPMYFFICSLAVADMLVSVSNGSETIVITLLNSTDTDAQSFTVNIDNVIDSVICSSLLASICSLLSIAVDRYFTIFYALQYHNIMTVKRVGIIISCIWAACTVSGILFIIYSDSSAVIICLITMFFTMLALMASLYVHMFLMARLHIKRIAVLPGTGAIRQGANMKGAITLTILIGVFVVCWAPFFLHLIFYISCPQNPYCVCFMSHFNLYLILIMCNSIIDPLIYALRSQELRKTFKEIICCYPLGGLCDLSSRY
The target of assay [5] is Neurotensin receptor type 1 (Homo sapiens, UniProt P30989). The assay is classed as functional.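 Further: Image-based confirmatory dose-response assay measuring agonist activity at NTR1; NTR1-expressing U2OS osteosarcoma cells imaged for beta-arrestin GFP spot formation; agonist potency where compounds increase beta-arrestin recruitment.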
Chain of Neurotensin receptor type 1 (P30989 whole entry): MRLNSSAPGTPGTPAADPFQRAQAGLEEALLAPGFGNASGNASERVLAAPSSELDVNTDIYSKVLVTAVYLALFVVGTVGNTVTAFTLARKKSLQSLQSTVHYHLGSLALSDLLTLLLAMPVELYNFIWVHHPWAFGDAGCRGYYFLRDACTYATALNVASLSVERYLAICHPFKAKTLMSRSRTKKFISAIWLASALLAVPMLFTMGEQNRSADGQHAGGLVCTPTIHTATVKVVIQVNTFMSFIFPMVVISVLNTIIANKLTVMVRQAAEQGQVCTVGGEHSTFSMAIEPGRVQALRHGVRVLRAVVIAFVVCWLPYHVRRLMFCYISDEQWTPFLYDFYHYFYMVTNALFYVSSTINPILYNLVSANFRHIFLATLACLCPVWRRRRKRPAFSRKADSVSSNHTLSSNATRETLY
Assay [6] can be described thus: inhibitors of intracellular T. cruzi replication, confirmation, NIH3T3 host cells, beta-gal luminescence (AID 2044).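 Further: intracellular parasites grown in NIH/3T3 mouse fibroblasts as host cells; luminescent beta-galactosidase reporter signal from transgenic T. cruzi replicating inside host cells; inhibitors lower the luminescence signal.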 The assay is classed as functional, cell-based.
Assay [7] is described as follows: AlphaScreen signal interference compounds, dose response, artefact control for ARNT-TACC3 interaction inhibitor project, biochemical, luminescence, cherry-pick (AID 651705).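 Further: AlphaScreen bead proximity signal that flags compounds interfering with the detection technology; potency reflects signal decrease which marks the compound as an assay artifact.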 The assay is classed as functional. Background: In Alpha technology, singlet oxygen from a donor bead excites a nearby acceptor bead.
The nature of assay [8]: Shn3 3'UTR reporter inhibitors, dose response, cell-based, Clone20 osteoblasts, firefly luciferase, cherry-picked (AID 624132).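 Further: firefly luciferase luminescence from reporter carrying the Shn3 3'UTR in osteoblasts.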 The assay is classed as functional.
The target of the next assay is Protein Wnt-3a (Mus musculus, UniProt P27467). As to the kind of experiment: Wnt3a-driven reporter signaling inhibition, dose response, selectivity assay for Gli-SUFU antagonist project, Wnt-LIGHT cells, luminescence (AID 651570).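 Further: Wnt-LIGHT reporter cells stimulated with conditioned medium from Wnt3a-producing cells.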 The assay is classed as functional. The conditions noted are these: read-out: IC50_Mean.
For a further assay, the target named is Cytochrome P450 2D6 (Homo sapiens, UniProt P10635).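 Further: CYP2D6 member of a cytochrome P450 panel assay.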
Chain of Cytochrome P450 2D6 (P10635 whole entry): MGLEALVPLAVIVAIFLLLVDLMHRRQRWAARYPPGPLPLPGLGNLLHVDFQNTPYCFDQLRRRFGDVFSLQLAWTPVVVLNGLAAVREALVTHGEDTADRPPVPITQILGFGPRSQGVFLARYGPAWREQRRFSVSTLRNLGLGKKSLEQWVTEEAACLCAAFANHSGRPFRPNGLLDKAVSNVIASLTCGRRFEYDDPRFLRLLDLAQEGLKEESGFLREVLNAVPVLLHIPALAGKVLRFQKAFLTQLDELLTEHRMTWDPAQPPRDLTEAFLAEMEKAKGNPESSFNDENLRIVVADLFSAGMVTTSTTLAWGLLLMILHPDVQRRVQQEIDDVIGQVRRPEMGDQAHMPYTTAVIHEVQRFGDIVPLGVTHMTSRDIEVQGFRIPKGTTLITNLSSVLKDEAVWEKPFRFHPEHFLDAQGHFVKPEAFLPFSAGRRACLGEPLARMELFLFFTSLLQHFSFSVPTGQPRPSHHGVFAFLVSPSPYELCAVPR
Assay [9] in a line: HepG2 cell cytotoxicity, dose response, cytotoxicity control for Shn3 inhibitor project, CellTiter-Glo, cherry-picked (AID 624134). The assay is classed as functional, cell-based. (In general: Cellular ATP, detected with luciferase, serves as a proxy for viable cell number.)
Assay [10] is described as follows: control 3'UTR Renilla luciferase suppression, dose response, counter-screen for Shn3 inhibitor project, cell-based, Clone20-Shn3RL, cherry-picked (AID 624133). The assay is classed as functional. For orientation: Counterscreens check selectivity or assay interference.
In assay [11] the test system is Streptococcus sp. 'group A'. Description: growth inhibition of control SK(-) GAS strain, dose response, counter-screen for streptokinase expression inhibitor project, luminescence, kanamycin, BacTiterGlo, confirmation (AID 1900). The assay is classed as functional, organism-based.
Assay [12] deals with Photoreceptor-specific nuclear receptor (Homo sapiens, UniProt Q9Y5X4). The assay is classed as functional, cell-based.
Chain of Photoreceptor-specific nuclear receptor (Q9Y5X4 whole entry): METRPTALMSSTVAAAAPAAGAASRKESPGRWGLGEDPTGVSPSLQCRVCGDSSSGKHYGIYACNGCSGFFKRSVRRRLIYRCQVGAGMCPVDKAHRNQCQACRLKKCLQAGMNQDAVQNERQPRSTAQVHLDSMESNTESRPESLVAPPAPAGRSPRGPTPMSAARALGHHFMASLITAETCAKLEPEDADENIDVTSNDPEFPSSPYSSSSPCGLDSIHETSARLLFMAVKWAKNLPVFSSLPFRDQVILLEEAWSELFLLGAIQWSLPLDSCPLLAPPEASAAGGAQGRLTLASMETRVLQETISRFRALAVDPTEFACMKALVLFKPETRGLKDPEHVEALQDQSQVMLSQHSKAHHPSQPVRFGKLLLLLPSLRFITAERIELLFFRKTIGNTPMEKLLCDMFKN
For a further assay, the target named is T3, Streptokinase A (Streptococcus pyogenes serotype M1, UniProt P10520).
T3 sequence (P10520 whole entry): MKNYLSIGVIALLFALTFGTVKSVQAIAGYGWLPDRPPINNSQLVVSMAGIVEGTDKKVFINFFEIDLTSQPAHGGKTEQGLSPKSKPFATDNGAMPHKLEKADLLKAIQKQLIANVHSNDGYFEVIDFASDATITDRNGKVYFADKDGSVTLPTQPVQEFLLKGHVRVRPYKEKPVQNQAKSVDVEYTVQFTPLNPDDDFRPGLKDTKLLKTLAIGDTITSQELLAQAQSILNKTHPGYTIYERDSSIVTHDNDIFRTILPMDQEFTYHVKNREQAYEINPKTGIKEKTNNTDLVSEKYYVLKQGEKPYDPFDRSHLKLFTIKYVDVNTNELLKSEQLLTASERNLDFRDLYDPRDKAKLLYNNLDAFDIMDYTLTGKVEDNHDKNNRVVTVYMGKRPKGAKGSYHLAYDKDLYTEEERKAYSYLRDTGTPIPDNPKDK
Description: S. pyogenes streptokinase expression inhibitors, potency, dose response, plasminogen activation absorbance, OD405 (AID 1914).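 Further: secreted streptokinase activity via plasminogen activation per viability signal from cell pellet.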 The assay is classed as functional, Streptococcus pyogenes M1 GAS.

In a further assay the test system is Streptococcus. As to the kind of experiment: Group A Streptococcus viability loss, dose response, counter-screen for streptokinase expression inhibitor project, luminescence, BacTiterGlo (AID 1915).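 Further: potency for reduction of bacterial viability or growth.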 The assay is classed as functional, organism-based.
Assay [13] can be described thus: ARNT/TACC3 interaction disruptors, potency, confirmation, biochemical, AlphaScreen, cherry-picked samples (AID 651703).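 Further: His-tagged ARNT PAS-B domain paired with GST-TACC3 E629A dimer coactivator fragment; potency of inhibitors that break up the complex and lower AlphaScreen signal.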 The assay is classed as functional, Homo sapiens.
The target of assay [14] is ATP-dependent translocase ABCB1 (Homo sapiens, UniProt P08183). As to the kind of experiment: ABCB1 efflux pump inhibitor potency, dose response, Jurkat-DNR cells, JC-1, flow cytometry (AID 1689). The assay is classed as functional.
Chain of ATP-dependent translocase ABCB1 (P08183 whole entry, the tested form may be a part): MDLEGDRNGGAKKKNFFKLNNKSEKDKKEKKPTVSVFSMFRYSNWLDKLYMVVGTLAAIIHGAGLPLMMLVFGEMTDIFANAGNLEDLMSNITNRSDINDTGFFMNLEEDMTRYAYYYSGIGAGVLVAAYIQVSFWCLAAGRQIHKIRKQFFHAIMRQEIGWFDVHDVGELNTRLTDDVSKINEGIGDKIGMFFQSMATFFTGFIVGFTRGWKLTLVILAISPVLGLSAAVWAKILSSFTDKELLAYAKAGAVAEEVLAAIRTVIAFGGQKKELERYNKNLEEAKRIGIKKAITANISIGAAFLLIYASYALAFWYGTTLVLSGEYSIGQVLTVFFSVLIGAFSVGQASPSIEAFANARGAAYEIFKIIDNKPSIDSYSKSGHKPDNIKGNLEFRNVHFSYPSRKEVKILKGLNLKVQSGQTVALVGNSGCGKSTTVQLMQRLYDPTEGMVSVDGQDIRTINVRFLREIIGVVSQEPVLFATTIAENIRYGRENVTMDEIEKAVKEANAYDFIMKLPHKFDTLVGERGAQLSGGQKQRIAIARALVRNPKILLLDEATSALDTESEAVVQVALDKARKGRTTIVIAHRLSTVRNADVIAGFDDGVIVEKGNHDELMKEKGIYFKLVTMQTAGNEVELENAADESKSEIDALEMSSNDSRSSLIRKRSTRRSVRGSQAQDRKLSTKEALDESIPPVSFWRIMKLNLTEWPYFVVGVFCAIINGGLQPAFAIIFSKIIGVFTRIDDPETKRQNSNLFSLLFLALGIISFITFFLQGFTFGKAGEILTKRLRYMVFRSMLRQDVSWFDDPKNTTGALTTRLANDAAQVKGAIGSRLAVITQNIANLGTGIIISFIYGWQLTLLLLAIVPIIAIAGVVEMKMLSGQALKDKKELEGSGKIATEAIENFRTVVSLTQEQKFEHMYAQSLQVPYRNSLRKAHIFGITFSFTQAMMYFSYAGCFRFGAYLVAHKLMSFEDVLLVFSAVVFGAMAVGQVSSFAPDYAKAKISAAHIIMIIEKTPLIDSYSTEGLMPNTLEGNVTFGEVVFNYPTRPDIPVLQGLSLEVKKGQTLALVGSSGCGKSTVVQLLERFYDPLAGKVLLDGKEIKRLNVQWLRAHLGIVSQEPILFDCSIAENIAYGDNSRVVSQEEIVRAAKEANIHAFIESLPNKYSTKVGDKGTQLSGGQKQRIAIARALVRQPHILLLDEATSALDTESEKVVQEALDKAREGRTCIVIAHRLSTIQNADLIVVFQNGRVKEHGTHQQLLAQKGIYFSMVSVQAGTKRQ
Assay [15] addresses T4, Sentrin-specific protease 1 (Homo sapiens, UniProt Q9P0U3). As to the kind of experiment: Dose response confirmation of small molecule inhibitors of the catalytic domain of the SUMO protease, SENP1 in a FRET assay. The assay is classed as functional. The conditions noted are these: read-out: IC50_Mean.
For assay [16], the target named is T4, Sentrin-specific protease 1. Description: potency of human SENP1 inhibitors, dose response, biochemical, kinetic FRET (AID 651697). Conditions: read-out: IC50_Mean. The assay is classed as functional.
The target of assay [17] is T5, Carboxy-terminal domain RNA polymerase II polypeptide A small phosphatase 1 (Homo sapiens, UniProt Q9GZU7).
T5 sequence (Q9GZU7 whole entry): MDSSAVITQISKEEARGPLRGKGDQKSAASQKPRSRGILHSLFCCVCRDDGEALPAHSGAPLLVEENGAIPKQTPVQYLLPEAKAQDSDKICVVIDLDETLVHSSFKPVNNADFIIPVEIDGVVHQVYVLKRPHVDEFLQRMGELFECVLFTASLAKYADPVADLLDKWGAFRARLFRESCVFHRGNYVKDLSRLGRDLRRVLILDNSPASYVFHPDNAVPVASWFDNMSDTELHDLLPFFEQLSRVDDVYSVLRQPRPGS
As to the kind of experiment: inhibitors of CTDSP1, concentration-response testing, biochemical assay, absorbance-based, actives from ultra-high-throughput screening (AID 540297). The assay is classed as functional.

The target in assay [18] is ADP-ribosylation factor GTPase-activating protein 1 (Rattus norvegicus, UniProt Q62848). As to the kind of experiment: Fluorescence polarization-based biochemical high throughput dose response screening assay to identify inhibitors of ADP-ribosylation factor GTPase activating protein 1 (ARFGAP1). The assay is classed as functional.
Chain of ADP-ribosylation factor GTPase-activating protein 1 (Q62848 whole entry): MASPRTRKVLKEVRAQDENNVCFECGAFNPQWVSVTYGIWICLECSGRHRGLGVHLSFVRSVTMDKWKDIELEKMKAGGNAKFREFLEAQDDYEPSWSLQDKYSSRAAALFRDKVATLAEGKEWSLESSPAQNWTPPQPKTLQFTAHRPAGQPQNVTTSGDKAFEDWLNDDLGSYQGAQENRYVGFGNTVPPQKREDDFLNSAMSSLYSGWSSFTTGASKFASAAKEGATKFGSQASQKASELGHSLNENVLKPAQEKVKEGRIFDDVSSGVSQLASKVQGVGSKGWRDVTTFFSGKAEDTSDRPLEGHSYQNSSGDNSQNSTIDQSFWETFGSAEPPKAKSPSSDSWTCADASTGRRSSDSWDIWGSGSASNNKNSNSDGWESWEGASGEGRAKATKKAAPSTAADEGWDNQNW
Assay [19] deals with Hepatocyte nuclear factor 4-alpha (Homo sapiens, UniProt P41235). The assay is classed as functional, cell-based.
Chain of Hepatocyte nuclear factor 4-alpha (P41235 whole entry): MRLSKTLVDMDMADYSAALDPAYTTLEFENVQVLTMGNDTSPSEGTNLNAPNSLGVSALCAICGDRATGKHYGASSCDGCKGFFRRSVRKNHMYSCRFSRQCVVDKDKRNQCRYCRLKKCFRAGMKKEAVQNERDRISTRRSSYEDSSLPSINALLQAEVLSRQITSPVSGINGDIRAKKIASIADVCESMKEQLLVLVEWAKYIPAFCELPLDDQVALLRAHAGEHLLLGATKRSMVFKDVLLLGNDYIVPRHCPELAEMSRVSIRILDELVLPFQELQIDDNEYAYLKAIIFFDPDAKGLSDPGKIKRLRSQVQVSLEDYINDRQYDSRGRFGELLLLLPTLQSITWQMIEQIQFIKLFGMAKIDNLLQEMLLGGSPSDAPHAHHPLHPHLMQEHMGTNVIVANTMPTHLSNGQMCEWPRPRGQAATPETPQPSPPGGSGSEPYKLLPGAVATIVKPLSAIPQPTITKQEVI
Assay [20] has as its target T1, Mitochondrial peptide methionine sulfoxide reductase. The assay is classed as functional.
For assay [21], the target named is DNA (cytosine-5)-methyltransferase 1 (Homo sapiens, UniProt P26358). As to the kind of experiment: DNMT1 methyltransferase inhibitors, confirmation, biochemical, fluorescent molecular beacon (AID 602386). The assay is classed as functional.
A short description of assay [22]: HeLa cell cytotoxicity, dose response, cytotoxicity control for MgcRacGAP inhibitor project (AID 624300). The assay is classed as functional.
In assay [23] the target is T6, Rac GTPase-activating protein 1 (Homo sapiens, UniProt Q9H0H5).
T6 sequence (Q9H0H5 whole entry): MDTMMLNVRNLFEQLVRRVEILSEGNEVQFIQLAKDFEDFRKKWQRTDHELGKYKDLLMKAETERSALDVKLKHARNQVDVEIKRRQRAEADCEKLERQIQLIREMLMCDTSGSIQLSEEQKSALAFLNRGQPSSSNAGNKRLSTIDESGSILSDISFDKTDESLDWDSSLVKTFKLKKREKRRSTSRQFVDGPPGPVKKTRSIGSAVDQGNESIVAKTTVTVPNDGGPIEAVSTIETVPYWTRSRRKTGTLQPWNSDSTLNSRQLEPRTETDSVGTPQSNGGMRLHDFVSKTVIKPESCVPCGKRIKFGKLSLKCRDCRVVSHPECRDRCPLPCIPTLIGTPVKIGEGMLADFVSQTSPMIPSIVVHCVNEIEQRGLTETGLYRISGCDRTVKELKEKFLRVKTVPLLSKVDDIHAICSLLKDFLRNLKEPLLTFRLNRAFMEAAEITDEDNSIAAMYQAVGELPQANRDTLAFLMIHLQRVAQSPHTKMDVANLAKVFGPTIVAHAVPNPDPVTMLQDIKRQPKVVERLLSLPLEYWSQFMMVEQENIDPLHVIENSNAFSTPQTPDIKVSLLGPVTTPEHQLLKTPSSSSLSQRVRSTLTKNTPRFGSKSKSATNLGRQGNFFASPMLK
As to the kind of experiment: MgcRacGAP GTPase-activating activity inhibitors, confirmation, biochemical, ADP Hunter fluorescence, primary and confirmatory (AID 624330). The assay is classed as functional.

T4 sequence (Q9P0U3 whole entry, the tested form may be a part): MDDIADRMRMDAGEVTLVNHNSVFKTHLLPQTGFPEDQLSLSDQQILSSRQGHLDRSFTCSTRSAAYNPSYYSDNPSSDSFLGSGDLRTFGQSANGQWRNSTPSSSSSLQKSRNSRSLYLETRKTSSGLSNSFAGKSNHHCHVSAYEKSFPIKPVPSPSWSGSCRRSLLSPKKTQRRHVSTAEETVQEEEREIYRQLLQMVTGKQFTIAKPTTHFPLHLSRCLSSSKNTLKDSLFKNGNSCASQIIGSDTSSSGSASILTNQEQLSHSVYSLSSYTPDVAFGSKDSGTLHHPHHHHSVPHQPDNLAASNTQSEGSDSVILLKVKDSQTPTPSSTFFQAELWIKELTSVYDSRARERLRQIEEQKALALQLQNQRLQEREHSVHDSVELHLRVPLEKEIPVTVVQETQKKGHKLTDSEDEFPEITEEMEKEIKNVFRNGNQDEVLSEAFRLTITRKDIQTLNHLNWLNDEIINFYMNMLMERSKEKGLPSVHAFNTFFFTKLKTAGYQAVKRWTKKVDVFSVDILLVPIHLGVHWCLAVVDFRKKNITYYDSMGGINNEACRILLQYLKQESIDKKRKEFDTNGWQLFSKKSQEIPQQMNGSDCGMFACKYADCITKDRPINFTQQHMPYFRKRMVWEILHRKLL
T1 sequence (P54149 whole entry): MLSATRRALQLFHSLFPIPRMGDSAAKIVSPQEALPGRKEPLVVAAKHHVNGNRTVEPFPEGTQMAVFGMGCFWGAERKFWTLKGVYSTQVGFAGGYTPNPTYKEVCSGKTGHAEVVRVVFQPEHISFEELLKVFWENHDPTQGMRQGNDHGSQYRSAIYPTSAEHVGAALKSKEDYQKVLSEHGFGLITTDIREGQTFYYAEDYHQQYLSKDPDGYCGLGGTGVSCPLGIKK

Take `CC(C)(C)N1CC(c2nc3ccccc3n2Cc2ccc(Cl)cc2)CC1=O` (stereo not drawn): in assay [1], the IC50 was 1.23 µM (active).

As a reminder, the EC50 is the concentration giving half of the maximal effect. As for `CN(CC(=O)Nc1ccccc1N1CCOCC1)S(=O)(=O)c1ccc(Cl)cc1`, the EC50 in assay [2] is > 104 µM (inactive).

Regarding `CCCOC(=O)c1cccc(Nc2nc(-c3cccnc3)nc3ccccc23)c1`, the EC50 in assay [3] is 9.22 µM (active); on Melanocortin receptor 4 it was > 89.3 µM (inactive); in assay [5], > 40 µM (inactive); in assay [6], 534 nM (active). In addition, the IC50 in assay [4] was > 20 µM (inactive).

Usually AC50 stands for the concentration at which the activity in the assay is half-maximal. Regarding `Nc1nc(CN2CCCCCC2)nc(Nc2ccccc2)n1`, in assay [7], the concentration at half-maximal activity (AC50) is 133 µM (active).

Consider `O=c1c2ccccc2nc2n1C(CSCc1cccc(C(F)(F)F)c1)CS2` (stereo not drawn), for which the AC50 in assay [8] was 1.68 µM (active); at Cytochrome P450 2D6, 7.08 µM (inconclusive); in assay [9], 3.22 µM (active); in assay [10], 863 nM (active). Also, at Protein Wnt-3a, the IC50 was 2.01 µM (active).

On to `CCN(c1ccccc1)S(=O)(=O)c1ccc(C(=O)Nc2nnc(CSC)o2)cc1`, for which the values for the EC50 (in assay [11]; on Streptokinase A; in the assay with Streptococcus) were 3.5 µM (active), > 150 µM (not active) and 15 µM (active), respectively. Besides, the IC50 in assay [12] was 8.64 µM (active).

With `O=C1c2cccc3cccc(c23)C(=O)N1CCCCCc1nnc(S)o1`, the AC50 in [13] was 102 µM (active).

For `CCCCn1c(O)c(/N=N/c2ccccn2)c2ccccc21`, the EC50 in assay [14] is 23.9 µM (inactive).

On to `N#Cc1ccc(-c2nc3ccc(Cl)cn3c2Cc2ccccc2C(F)(F)F)cc1`, for which the IC50 was 8.47 µM (active) in assay [15] and 9.87 µM (active) in assay [16].

In the case of `O=C(N/N=C/c1sc(=O)n(Cc2ccc(Br)cc2)c1Cl)c1ccco1`, the IC50 was 3.55 µM (active) in assay [17] and 34.3 µM (inactive) in [18].

As to `Cc1cccc(C)c1NC(=O)C(c1cccc2ccccc12)n1c(=O)c(-c2ccco2)nc2ccccc21` (stereo not drawn), the IC50 in [19] was 2.56 µM (active).

On to `Cc1ccc(C(=O)N/N=C/C=C/c2ccccc2)o1`, for which the IC50 in assay [20] was 134 µM (inactive).

What is called CC50 is the concentration that lowers cell viability or growth by half. For the compound `c1ccc2c(c1)c1c(c3ccccc32)CN2CCCC2C1` (stereo not drawn), the IC50 in assay [21] is > 99 µM (inactive); in [23] it was 111 µM (active). For the same compound, in [22], the 50% cytotoxic concentration (CC50) was 100 µM (active).
